Test results: paper PMC6874530, “Structural analysis identifies an escape route from the adverse lipogenic effects of liver X receptor ligands” (Communications Biology, 2019)
Read-outs that look alike come from different tables or passages of the source. Each block holds one compound with its values, some of them ahead of it.

How the values were obtained:
LXRα = target: T1, LXRα (Homo sapiens, UniProt Q13133); assay: Gal4 one hybrid reporter gene (transactivation) assay in U2OS cells, LXRα; type: cell-based; details: value (SD, n); for EC50: U2OS cells, Gal4-LXRα LBD, read-out: LXRα transactivation pEC50 (converted); for Emax: U2OS, 40 h, maximal activation compared with a reference full agonist, read-out: LXRα transactivation Agonist efficacy, %
T1 construct: expression vectors pSG5-Gal4-LXRα LBD or pSG5-Gal4-LXRβ LBD; expressed in transfected cells; host or cells: U2OS osteosarcoma cells
T1 sequence (Q13133 209-447 limits assumed): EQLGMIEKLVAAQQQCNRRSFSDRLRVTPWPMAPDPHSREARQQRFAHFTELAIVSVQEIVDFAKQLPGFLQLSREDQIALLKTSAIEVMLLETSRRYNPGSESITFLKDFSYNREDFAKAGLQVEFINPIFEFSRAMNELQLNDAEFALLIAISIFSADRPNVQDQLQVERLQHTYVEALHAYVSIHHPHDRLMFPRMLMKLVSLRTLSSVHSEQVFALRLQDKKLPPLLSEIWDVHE
Description: (§1) Transactivation assays were performed in U2OS osteosarcoma cells (ATCC, USA). […] Ligands were added at ten different concentrations 2 h post transfection and the luciferase activity was measured after 40 h.

LXRβ = target: T2, LXRβ (Homo sapiens, UniProt P55055); assay: Gal4 one hybrid reporter gene (transactivation) assay in U2OS cells, LXRβ; type: cell-based; details: for Emax: U2OS, 40 h, maximal activation compared with a reference full agonist, read-out: LXRβ transactivation Agonist efficacy, %; for Potency-based LXRβ selectivity over LXRα: Gal4 reporter gene assays
T2 construct: expression vectors pSG5-Gal4-LXRα LBD or pSG5-Gal4-LXRβ LBD; expressed in transfected cells; host or cells: U2OS osteosarcoma cells
T2 sequence (P55055 222-460 limits assumed): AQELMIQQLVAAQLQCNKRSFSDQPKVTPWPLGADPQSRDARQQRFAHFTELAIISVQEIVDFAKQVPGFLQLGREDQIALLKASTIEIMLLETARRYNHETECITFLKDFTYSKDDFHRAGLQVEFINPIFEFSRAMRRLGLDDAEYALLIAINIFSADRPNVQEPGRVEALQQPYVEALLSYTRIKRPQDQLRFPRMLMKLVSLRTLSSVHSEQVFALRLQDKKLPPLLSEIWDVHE
Description: as §1

Abca1 mRNA in intestine = assay: intestinal Abca1 mRNA induction in C57BL/6 mice (Emax model); type: in vivo, mouse; details: for ED50: Mus musculus
Description: All procedures involving animals were conducted in accordance with accepted standards of good animal practice and approved by the respective local animal ethics committees (Gothenburg region Local Ethics Review Committee on Animal experiments and University of Virginia Animal Care and Use Committee). Male C57BL/6JOlaHsd mice were retrieved from Harlan Laboratories (Horst, The Netherlands) around 7 weeks of age. In the studies with BMS-852907, male 8-week C57BL/6J mice (Jackson Laboratories) were used. Mice were given ad libitum access to water and standard rodent chow during the studies.
Solid compounds were solubilized in PEG400/Ethanol/Solutol/Water solution (36.3/9.1/4.6/50%). Compounds were given daily by oral gavage, 5 ml kg^−1, at doses ranging from 0.1 to 100 μmol kg^−1 of body weight for 4 days. Animals were terminated 3 h after the last dose.
At termination, the whole-blood volume was drawn from isoflurane-anesthetized mice via an incision in the carotid artery into EDTA blood tubes (S-Monovette®, EDTA KE/1.3 mL, Sarstedt, Nümbrecht, Germany or BD Microtainers®, Benton, Dickinson and Company, Franklin Lakes, New Jersey, USA). Blood samples were placed on ice and centrifuged within an hour (15 min, 2500 × g, 4 °C or 5 min, 16000 × g, 4 °C). The plasma was then dispensed in separate tubes and kept at −80 °C for later analysis of compound concentration and TG levels. For the analysis of intestinal Abca1 transcript levels, a 3–5-mm long segment of the duodenum was excised and cleared from any gut contents. Tissues were instantly snap frozen in liquid nitrogen and stored at −80 °C.
Snap-frozen intestinal tissues were quickly disrupted in QIAzol® (Qiagen, Hilden, Germany) or PureZOL™ (Bio-Rad Laboratories, Hercules, California, USA) by using a bead tissue homogenizer. Lysates were mixed with chloroform and centrifuged at 6000 × g for 15 min at 4 °C. Total RNA was purified from the upper aqueous phase on the ABI PRISM™ 6100 Nucleic Acid PrepStation (Applied Biosystems, Foster City, USA) or by using the RNeasy kit® (QIAGEN Sciences Inc., Germantown, Maryland, USA) including on-column DNase treatment by using the respective manufacturer’s protocol and reagents. Concentration of total RNA was determined on a NanoDrop™ ND-100 Spectrophotometer (Saveen Werner, Lögstrup, Sweden). The RNA templates were transferred to cDNA by reverse transcription by using the High-Capacity cDNA Reverse Transcription Kit (Applied Biosystems, Foster City, USA) according to the manufacturer’s protocol. Mouse ATP-binding cassette subfamily A member 1 (Abca1) was analyzed by using the forward primer 5′-[…]-3′, reverse primer 5′-[…]-3′, and the dual-labeled probe 5′-6FAM-[…]-TAMRA-3′. Mouse ribosomal protein large P0 (Rplp0, 36b4) was analyzed by using the forward primer 5′-[…]-3′, reverse primer 5′-[…]-3′, and the FAM-labeled probe 5′-[…]-TAMRA-3′. In the study with BMS-852907, RT-qPCR reactions were carried out in separate triplicate wells for Abca1 and Rplp0, respectively, by using 20 ng of cDNA template, 385 nM of the above-mentioned primers, and iQ™ SYBR Green Supermix (Bio-Rad, Hercules, California, USA) on a Bio-Rad MyiQ instrument (Bio-Rad, Hercules, California, USA). In the other studies, 400 nM Abca1 forward and reverse primers, 200 nM Abca1 probe, 200 nM Rplp0 forward and reverse primers, and 100 nM Rplp0 probe were mixed with 15 ng of cDNA template and TaqMan™ Gene Expression Master Mix (Applied Biosystems, Foster City, USA). The RT-qPCR reactions were performed on a 7500 Real-time PCR system (Applied Biosystems, Foster City, USA). Cycle threshold values (Ct) were retrieved from the instrument software. Relative changes in mRNA expression were calculated by using the comparative cycle method (2^−ΔΔCt). […]

LXRβ LBD = target: T3, LXRβ LBD (Homo sapiens, UniProt P55055); assay: biochemical
T3 sequence (P55055 215-460 limits assumed): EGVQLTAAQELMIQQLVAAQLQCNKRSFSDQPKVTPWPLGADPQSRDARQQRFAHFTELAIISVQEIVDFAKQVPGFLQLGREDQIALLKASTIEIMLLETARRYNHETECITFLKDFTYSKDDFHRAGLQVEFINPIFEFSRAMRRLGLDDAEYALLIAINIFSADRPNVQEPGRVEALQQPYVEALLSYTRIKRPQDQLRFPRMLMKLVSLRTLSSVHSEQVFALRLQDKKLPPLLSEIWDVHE
Description: The compounds were run in triplicate (binding assay) or in quadruplicate (transactivation assay). Standard deviations are indicated for individual experiments run more than once.

[1] = U2OS cells, Gal4-LXRβ LBD, value (SD, n), read-out: LXRβ transactivation pEC50 (converted)
[2] = po, read-out: Abca1 mRNA induction in intestine Attributed class
[3] = oral gavage daily for 4 days, C57BL/6 mice, (% RSE), read-out: Abca1 mRNA induction in intestine ED50
[4] = Receptor-binding affinity pKi LXRβ, value (SD, n independent experiments)
[5] = binding affinity to the LXRβ LBD

Structure (SMILES): CN(C)C(=O)c1cccc(CCCCNC2=C(c3ccccc3)S(=O)(=O)N(C(C)(C)C)C2=O)c1 [AZ1]
- EC50 (LXRα): 110 nM
- Emax (LXRα): 102%
- EC50 (LXRβ; [1]): 30.9 nM
- Emax (LXRβ; value (SD, n)): 76%
- class of intestinal Abca1 induction (Abca1 mRNA in intestine): high ABCA1
- ED50 (Abca1 mRNA in intestine; [2]): ≤ 11.3 µmol/kg
- ED50 (Abca1 mRNA in intestine; [3]): < 30 µmol/kg
- Ki (LXRβ LBD; [4]): 2.51 nM
- Ki (LXRβ LBD; [5]): 2 nM

Structure (SMILES): CC(CCCc1cccc(S(N)(=O)=O)n1)NC1=C(c2ccccc2)S(=O)(=O)N(C(C)C)C1=O (stereo not drawn) [AZ2]
- EC50 (LXRα): 77.6 nM
- Emax (LXRα): 111%
- Potency-based LXRβ selectivity over LXRα (LXRβ): 11 fold
- EC50 (LXRβ; [1]): 8.71 nM
- Emax (LXRβ; value (SD, n)): 97.3%
- ED50 (Abca1 mRNA in intestine; [2]): ≤ 11.3 µmol/kg
- ED50 (Abca1 mRNA in intestine; [3]): 9.64 µmol/kg
- Ki (LXRβ LBD; [4]): 3.72 nM

Structure (SMILES): CC(C)N1C(=O)C(NCCCCc2cccc(S(N)(=O)=O)n2)=C(c2ccccc2)S1(=O)=O [AZ3]
- EC50 (LXRα): 813 nM
- Emax (LXRα): 142%
- Potency-based LXRβ selectivity over LXRα (LXRβ): 9 fold
- EC50 (LXRβ; [1]): 75.9 nM
- Emax (LXRβ; value (SD, n)): 94.3%
- EC50 (LXRβ; read-out: potency in LXRβ-based assay): < 100 nM
- ED50 (Abca1 mRNA in intestine; [2]): ≤ 11.3 µmol/kg
- ED50 (Abca1 mRNA in intestine; [3]): 1.49 µmol/kg
- Ki (LXRβ LBD; [4]): 17.4 nM
- Ki (LXRβ LBD; [5]): 4 nM

Structure (SMILES): CC(C)(C)N1C(=O)C(NC2CCN(c3ncc(CC(=O)O)cc3Cl)CC2)=C(c2ccccc2)S1(=O)=O [AZ4]
- EC50 (LXRα): 427 nM
- Emax (LXRα): 103%
- EC50 (LXRβ; [1]): 148 nM
- Emax (LXRβ; value (SD, n)): 110%
- ED50 (Abca1 mRNA in intestine; [2]): ≤ 11.3 µmol/kg
- ED50 (Abca1 mRNA in intestine; [3]): 5.65 µmol/kg
- Ki (LXRβ LBD; [4]): 33.1 nM

- EC50 (LXRα): 1070 nM
- Emax (LXRα): 60.5%
- Potency-based LXRβ selectivity over LXRα (LXRβ): 11 fold
- EC50 (LXRβ; [1]): 97.7 nM
- Emax (LXRβ; value (SD, n)): 66.5%
- Ki (LXRβ LBD; [4]): 77.6 nM
Structure (SMILES): CN(C)C(=O)c1cnc(N2CC[C@@H](CNC3=C(c4ccccc4)S(=O)(=O)N(C(C)(C)C)C3=O)C2)c(Cl)c1 [AZ5]
- class of intestinal Abca1 induction (Abca1 mRNA in intestine): low ABCA1 inducers
- ED50 (Abca1 mRNA in intestine; [2]): > 11.3 µmol/kg
- ED50 (Abca1 mRNA in intestine; [3]): 17.2 µmol/kg

Structure (SMILES): CC(C)N1C(=O)C(NC2CCN(c3ncc(CC(=O)O)cc3Cl)CC2)=C(c2ccccc2)S1(=O)=O [AZ6]
- EC50 (LXRα): 1230 nM
- Emax (LXRα): 87.8%
- EC50 (LXRβ; [1]): 617 nM
- Emax (LXRβ; value (SD, n)): 95.3%
- class of intestinal Abca1 induction (Abca1 mRNA in intestine): high ABCA1 inducers
- ED50 (Abca1 mRNA in intestine; [2]): ≤ 11.3 µmol/kg
- ED50 (Abca1 mRNA in intestine; [3]): 11.3 µmol/kg
- Ki (LXRβ LBD; [4]): 162 nM
